US12404289B2 (Gilead Sciences, Inc., priority 2020, dated 2025)
Like-named read-outs stand apart in the source and are kept apart here.

How the values were obtained:
[1] = test system: SARS-CoV-2; experiment: SARS-CoV-2 antiviral assay (A549-hACE2, Nano luciferase); format: cell-based; conditions: A549-hACE2 cells, SARS-CoV2-Nano, MOI 0.025, 48 h, Table 4, read-out: EC50 SARS CoV2
[2] = test system: Respiratory syncytial virus (RSV) strain A2; experiment: Hep-2 RSV2 384-well assay (EC50-HEP2-384); format: cell-based; conditions: human respiratory syncytial virus, HEp-2, 96 h, HEp-2 cells, RSV A2, MOI=4, 4 days, Table 3
[3] = Severe acute respiratory syndrome coronavirus 2, 48 h

Row | Structure (SMILES) | EC50 [1] | EC50 [2] | EC50 [1, 3]
1 | CCC(CC)COC(=O)[C@H](C)NP(=O)(OC[C@H]1O[C@@](C#N)(c2ccc3c(N)ncnn23)[C@H](O)[C@@H]1O)Oc1ccccn1 (single isomer, unassigned) [Example 175a] | 3360 nM | 5000 nM | 
2 | CC(=O)O[C@H]1[C@@H](OC(C)=O)[C@](C#N)(c2ccc3c(N)ncnn23)O[C@@H]1COP(=O)(N[C@@H](C)C(=O)OCC1CCCCC1)Oc1ccc(C(C)(C)C)cc1 (stereo partly drawn) [Example 163, (2R,3R,4R,5R)-2-(4-aminopyrrolo[2,1-f][1,2,4]triazin-7-yl)-5-((((4-(tert-butyl)phenoxy)(((S)-1-(cyclohexylmethoxy)-1-oxopropan-2-yl)amino)phosphoryl)oxy)methyl)-2-cyanotetrahydrofuran-3,4-diyl Diacetate] |  | 68 nM | 378 nM
3 | CCC(=O)O[C@H]1[C@@H](OC(=O)CC)[C@](C#N)(c2ccc3c(N)ncnn23)O[C@@H]1COP(=O)(N[C@@H](C)C(=O)OCC1CC1)Oc1ccc(C(C)(C)C)cc1 (stereo partly drawn) [Example 103b, (2R,3R,4R,5R)-2-(4-aminopyrrolo[2,1-f][1,2,4]triazin-7-yl)-5-((((4-(tert-butyl)phenoxy)(((S)-1-(cyclopropylmethoxy)-1-oxopropan-2-yl)amino)phosphoryl)oxy)methyl)-2-cyanotetrahydrofuran-3,4-diyl Dipropionate] |  | 42 nM | 363 nM
4 | C[C@H](NP(=O)(OC[C@H]1O[C@@](C#N)(c2ccc3c(N)ncnn23)[C@H](O)[C@@H]1O)Oc1ccc(C(C)(C)C)cc1)C(=O)OC1CCC1 (stereo partly drawn) [Example 31, Cyclobutyl ((((2R,3S,4R,5R)-5-(4-aminopyrrolo[2,1-f][1,2,4]triazin-7-yl)-5-cyano-3,4-dihydroxytetrahydrofuran-2-yl)methoxy)(4-(tert-butyl)phenoxy)phosphoryl)-L-alaninate] |  | 53.2 nM | 250 nM
5 | CCC(=O)O[C@H]1[C@@H](OC(=O)CC)[C@](C#N)(c2ccc3c(N)ncnn23)O[C@@H]1COP(=O)(N[C@@H](C)C(=O)OC1CC(C)(C)C1)Oc1ccc(C(C)(C)C)cc1 (stereo partly drawn) [Example 95, (2R,3R,4R,5R)-2-(4-aminopyrrolo[2,1-f][1,2,4]triazin-7-yl)-5-((((4-(tert-butyl)phenoxy)(((S)-1-(3,3-dimethylcyclobutoxy)-1-oxopropan-2-yl)amino)phosphoryl)oxy)methyl)-2-cyanotetrahydrofuran-3,4-diyl Dipropionate] |  | 61.8 nM | 264 nM
6 | CC(C)C(=O)O[C@H]1[C@@H](OC(=O)C(C)C)[C@](C#N)(c2ccc3c(N)ncnn23)O[C@@H]1COP(=O)(N[C@@H](C)C(=O)OC1CC(C)(C)C1)Oc1ccc(C(C)(C)C)cc1 (stereo partly drawn) [Example 94, (2R,3R,4R,5R)-2-(4-aminopyrrolo[2,1-f][1,2,4]triazin-7-yl)-5-((((4-(tert-butyl)phenoxy)(((S)-1-(3,3-dimethylcyclobutoxy)-1-oxopropan-2-yl)amino)phosphoryl)oxy)methyl)-2-cyanotetrahydrofuran-3,4-diyl bis(2-methylpropanoate)] |  | 84.5 nM | 370 nM
7 | CCC(C)(C)CCOC(=O)[C@H](C)NP(=O)(OC[C@H]1O[C@@](C#N)(c2ccc3c(N)ncnn23)[C@H](OC(C)=O)[C@@H]1OC(C)=O)Oc1ccc(C(C)(C)C)cc1 (stereo partly drawn) [Example 159, (2R,3R,4R,5R)-2-(4-aminopyrrolo[2,1-f][1,2,4]triazin-7-yl)-5-((((4-(tert-butyl)phenoxy)(((S)-1-((3,3-dimethylpentyl)oxy)-1-oxopropan-2-yl)amino)phosphoryl)oxy)methyl)-2-cyanotetrahydrofuran-3,4-diyl Diacetate] |  | 79.3 nM | 369 nM
8 | C[C@H](NP(=O)(OC[C@H]1O[C@@](C#N)(c2ccc3c(N)ncnn23)[C@H](O)[C@@H]1O)Oc1ccc(C(C)(C)C)cc1)C(=O)OCC1CC1 (stereo partly drawn) [Example 101a, Cyclopropyl methyl ((((2R,3S,4R,5R)-5-(4-aminopyrrolo[2,1-f][1,2,4]triazin-7-yl)-5-cyano-3,4-dihydroxytetrahydrofuran-2-yl)methoxy)(4-(tert-butyl)phenoxy)phosphoryl)-L-alaninate] |  | 41.1 nM | 148 nM
9 | CC(=O)O[C@H]1[C@@H](OC(C)=O)[C@](C#N)(c2ccc3c(N)ncnn23)O[C@@H]1COP(=O)(N[C@@H](C)CC(=O)OC1CCC1)Oc1ccc(C(C)(C)C)cc1 (stereo partly drawn) [Example 166, (2R,3R,4R,5R)-2-(4-aminopyrrolo[2,1-f][1,2,4]triazin-7-yl)-5-((((4-(tert-butyl)phenoxy)(((S)-4-cyclobutoxy-4-oxobutan-2-yl)amino)phosphoryl)oxy)methyl)-2-cyanotetrahydrofuran-3,4-diyl Diacetate] |  | 5000 nM | 10000 nM
10 | CCC(C)(C)CCOC(=O)[C@H](C)NP(=O)(OC[C@H]1O[C@@](C#N)(c2ccc3c(N)ncnn23)[C@H](OC(C)=O)[C@@H]1OC(C)=O)Oc1ccccc1 (stereo partly drawn) [Example 106a, (2R,3R,4R,5R)-2-(4-aminopyrrolo[2,1-f][1,2,4]triazin-7-yl)-2-cyano-5-((((((S)-1-((3,3-dimethylpentyl)oxy)-1-oxopropan-2-yl)amino)(phenoxy)phosphoryl)oxy)methyl)tetrahydrofuran-3,4-diyl Diacetate] |  | 46.8 nM | 83.1 nM
11 | CC(=O)O[C@H]1[C@@H](OC(C)=O)[C@](C#N)(c2ccc3c(N)ncnn23)O[C@@H]1COP(=O)(N[C@@H](C)C(=O)OC1CC2(CCCC2)C1)Oc1ccc(C(C)(C)C)cc1 (stereo partly drawn) [Example 98a, (2R,3R,4R,5R)-2-(4-aminopyrrolo[2,1-f][1,2,4]triazin-7-yl)-5-((((4-(tert-butyl)phenoxy)(((S)-1-oxo-1-(spiro[3.4]octan-2-yloxy)propan-2-yl)amino)phosphoryl)oxy)methyl)-2-cyanotetrahydrofuran-3,4-diyl Diacetate] |  | 62.1 nM | 176 nM
12 | C[C@@H](CC(=O)OC1CCC1)NP(=O)(OC[C@H]1O[C@@](C#N)(c2ccc3c(N)ncnn23)[C@H](O)[C@@H]1O)Oc1ccc(C(C)(C)C)cc1 (stereo partly drawn) [Example 165, cyclobutyl (3S)-3-(((((2R,3S,4R,5R)-5-(4-aminopyrrolo[2,1-f][1,2,4]triazin-7-yl)-5-cyano-3,4-dihydroxytetrahydrofuran-2-yl)methoxy)(4-(tert-butyl)phenoxy)phosphoryl)amino)butanoate] |  | 5000 nM | 10000 nM
13 | CC(=O)O[C@H]1[C@@H](OC(C)=O)[C@](C#N)(c2ccc3c(N)ncnn23)O[C@@H]1COP(=O)(N[C@@H](C)C(=O)OCC1CCC1)Oc1ccccc1 (stereo partly drawn) [Example 145, (2R,3R,4R,5R)-2-(4-aminopyrrolo[2,1-f][1,2,4]triazin-7-yl)-2-cyano-5-((((((S)-1-(cyclobutylmethoxy)-1-oxopropan-2-yl)amino)(phenoxy)phosphoryl)oxy)methyl)tetrahydrofuran-3,4-diyl Diacetate] |  | 35 nM | 101 nM
14 | CC(C)C(=O)O[C@H]1[C@@H](OC(=O)C(C)C)[C@](C#N)(c2ccc3c(N)ncnn23)O[C@@H]1COP(=O)(N[C@@H](C)CC(=O)OC1CCC1)Oc1ccc(C(C)(C)C)cc1 (stereo partly drawn) [Example 167, (2R,3R,4R,5R)-2-(4-aminopyrrolo[2,1-f][1,2,4]triazin-7-yl)-5-((((4-(tert-butyl)phenoxy)(((S)-4-cyclobutoxy-4-oxobutan-2-yl)amino)phosphoryl)oxy)methyl)-2-cyanotetrahydrofuran-3,4-diyl bis(2-methylpropanoate)] |  | 5000 nM | 
